Experimental data: patent publication US11840560B2, “Prodrugs and uses thereof” (Novo Nordisk A/S, priority 2022, dated 2023)
Marks after values point to notes of the source that are not given here. *1 amine or outer side, *2 acyl side, *3 side chain or, on linkers, in order; H or OH if unused. Where a SMILES comes first, the peptide text is derived from it. Side-chain parts run from the residue outwards. [ ]: non-standard residue; d: D form. The star is where a group is joined. C18 diacid = O=C(O)CCCCCCCCCCCCCCCCC(=O)*; C16 diacid = O=C(O)CCCCCCCCCCCCCCC(=O)*; γGlu = O=C(O)[C@H](CCC(=O)[*:2])N[*:1]; εLys = N[C@@H](CCCCN[*:1])C(=O)[*:2]; AEEA = NCCOCCOCC(=O)O; Aib = CC(C)(N)C(=O)O; Sar = CNCC(=O)O

What was measured:
physchem = assay type: physicochemical; settings: buffer, pH 7.4
Protocol: The assay was performed to investigate the conversion half-life of prodrug to drug of the prodrugs of the invention. The conversion half-life was investigated in vitro at pH 7.4 upon incubation at 37° C.
Test compounds were dissolved to a concentration of 100 μM in phosphate-buffered saline (140 mM NaCl, 2.07 mM KCl, 8.05 mM Na2HPO4, 1.96 mM KH2PO4, pH 7.4). Solution pH was measured after dissolution and adjusted to pH 7.4 with aqueous NaOH if necessary. The solution was filtered through a 0.22 μm syringe filter, then incubated in a water bath at 37° C. Aliquots were withdrawn at defined timepoints, e.g. every 24-72 hours, for LCMS analysis.
LCMS analysis was performed using the procedure defined in LCMS_A above. The AUC of the prodrug, active drug, and DKP were determined using UV detection at 214 nm, and the ratio of prodrug AUC over total AUC of prodrug plus active drug plus DKP was calculated. The negative natural logarithm of this ratio was plotted over time, and a linear regression of this relationship was then performed.
The prodrug to drug conversion half-life of the compounds of the invention was measured as described in General Methods for Measuring Conversion Half-life.

in vivo [1] = test: in vivo; set-up: species or system beagle dogs; settings: dog, po, 300 mg; for Tmax / half-life: male, beagle
Protocol: The purpose of this method is to determine the terminal half-life and plasma exposure in vivo of the compounds of the present invention after p.o. administration to beagle dogs, i.e. the terminal half-life and concentration of test substance that reaches circulation with time. This is done in a pharmacokinetic (PK) study, where these parameters of the compound in question are determined. By terminal half-life is generally meant the period of time it takes to halve a certain plasma concentration, measured after the initial distribution phase.
Tablet compositions comprising the test compounds obtained from Example 1 and SNAC (sodium N-(8-(2-hydroxybenzoyl)amino)caprylate) were prepared according to methods known to the person skilled in the art by mixing test substance with roller compacted SNAC and magnesium stearate as e.g. described in WO 2019/149880. Each tablet was comprised of 7.7 mg magnesium stearate, 2-4 mg of each compound tested, and 300 mg SNAC.
Male beagle dogs, 1-7 years of age and weighing 9-17 kg during the study period, were included in the study. The dogs were dosed in a fasting state. The dogs were group housed in pens (12 hours light: 12 hours dark), and fed individually and restrictedly once daily with Royal Canin Medium Adult dog food (Royal Canin Products, China Branch, or Brogaarden A/S, Denmark). The dogs were used for repeated PK studies with a suitable wash-out period between successive dosing. An appropriate acclimatisation period was given prior to initiation of the first PK study. All handling, dosing, and blood sampling of the animals were performed by trained and skilled staff. Before the studies, the dogs were fasted overnight and from 0 to 4 hours after dosing. The dogs were restricted to water 1 hour before dosing until 4 hours after dosing, but otherwise had adlibitum access to water during the whole period.
The compositions were administered by a single oral dosing to the dogs in groups of 6-8 dogs. The tablets were administered in the following manner: 10 min prior to tablet administration, the dogs may be dosed subcutaneously with approximately 3 nmol/kg of SEQ ID NO.: 7 ([…]), then tablets were placed in the back of the mouth of the dog to prevent chewing. The mouth was then closed, and 10 mL of tap water was given by syringe or gavage to facilitate swallowing of the tablet.
One blood sample was drawn before dosing, and additional samples were drawn at predefined time points after dosing, such as for up to 600 hours, to adequately cover the full plasma concentration-time absorption profile of the test substance. For each blood sample time point, approximately 0.8 mL of whole blood was collected in a 1.5 mL EDTA-coated tube, which was gently turned to mix the sample with EDTA. Blood samples were collected in EDTA buffer (8 mM) and then centrifuged at 4° C. and 2000 g for 10 minutes. Plasma was pipetted into Micronic tubes on dry ice, and kept at −20° C. or lower until analysis. Blood samples were taken as appropriate, for example from a venflon in the cephalic vein in the front leg for the first 2 hours and then with syringe from the jugular vein for the rest of the time points. The first few drops were allowed to drain from the venflon to avoid heparin saline from the venflon in the sample. All blood samples were collected into test tubes containing EDTA for stabilisation and kept on ice until centrifugation. Plasma was separated from whole blood by centrifugation and the plasma was stored at −20° C. or lower until analysis.
The plasma was analysed for test substance using LC-MS (Liquid Chromatography-Mass Spectrometry) as known to the person skilled in the art. […]

in vivo [2] = test: in vivo; set-up: species or system Göttingen minipigs; settings: female, Göttingen, minipig, iv
Protocol: The purpose of this method is to determine the half-life in vivo of the derivatives of the present invention after i.v. administration to minipigs, i.e. the prolongation of their time in the body and thereby their time of action. This is done in a pharmacokinetic (PK) study, where the terminal half-life of the derivative in question is determined. By terminal half-life is generally meant the period of time it takes to halve a certain plasma concentration, measured after the initial distribution phase.
Female Göttingen minipigs were obtained from Ellegaard Göttingen Minipigs (Dalmose, Denmark) approximately 7-14 months of age and weighing from approximately 16-35 kg were used in the studies. The minipigs were housed individually and fed restrictedly once daily with SDS minipig diet (Special Diets Services, Essex, UK).
After at 3 weeks of acclimatisation two permanent central venous catheters were implanted in vena cava caudalis in each animal. The animals were allowed 1 week recovery after the surgery, and were then used for repeated pharmacokinetic studies with a suitable wash-out period between successive derivative dosing.
The animals were fasted for approximately 18 hours before dosing and from 0 to 4 hours after dosing but had ad libitum access to water during the whole period.
The sodium salts of compounds of Examples 1 were prepared using method SX_A under General Methods for preparation of the compounds of the invention. The resulting sodium salts were dissolved to a concentration of 50-300 nmol/mL in a buffer containing 0.007% polysorbate 20, 50 mM sodium phosphate, 70 mM sodium chloride, pH 7.4. Intravenous injections (the volume corresponding to usually 1-20 nmol/kg, for example 0.02-0.05 mL/kg) of the compounds were given through one catheter, and blood was sampled at predefined time points for up to 21 days post dosing (preferably through the other catheter). Blood samples (for example 0.8 mL) were collected in 8 mM EDTA buffer and then centrifuged at 4° C. and 1942 g for 10 minutes.
Plasma was pipetted into Micronic tubes on dry ice and kept at −20° C. until analysed for plasma concentration of the compounds using ELISA, or a similar antibody-based assay, or LCMS. Individual plasma concentration-time profiles were analysed by a non-compartmental model in Phoenix WinNonLin ver. 6.4. (Pharsight Inc., Mountain View, CA, USA), and the resulting terminal half-lives (harmonic mean) determined.
The terminal half-lives and/or the observed terminal half-lives, measured as described herein in General Methods for Measuring Terminal Half-Life in Minipigs are shown in Table 7. […] This provides evidence that conversion of prodrug to parent compound is occurring in vivo. The terminal half-life of the prodrug may be faster or slower than the corresponding parent compound due to the contribution of conversion on the terminal half-life of the prodrug.

half-life at 100 μM (physchem) [h]	AUC/Dose (in vivo [1])	Cmax/Dose (in vivo [1])	Tmax (in vivo [1]) [h]	half-life (in vivo [1]) [h]	half-life (in vivo [2]) [h]	Compound
244	41.2 kg·h/L	0.66 kg/L	4	146	118	H-[dK]([γGlu-C16 diacid])[Sar]Y[Aib]EGTFTSDYSILLEEQAAREFIEWLLAGGPSK([AEEA-AEEA-γGlu-C16 diacid])GAPPPS-OH [Compound 1]
111	38.5 kg·h/L	0.32 kg/L	7	139	119	H-K([γGlu-C16 diacid])[Sar]Y[Aib]EGTFTSDYSILLEEQAAREFIEWLLAGGPSK([AEEA-AEEA-γGlu-C16 diacid])GAPPPS-OH [Compound 3]
132					102	H-K([Gly-γGlu-C16 diacid])[Sar]Y[Aib]EGTFTSDYSILLEEQAAREFIEWLLAGGPSK([AEEA-AEEA-γGlu-C16 diacid])GAPPPS-OH [Compound 9]
	60.7 kg·h/L	0.67 kg/L	1.5	104	121	CC[C@H](C)[C@H](NC(=O)[C@H](Cc1ccccc1)NC(=O)[C@H](CCC(=O)O)NC(=O)[C@H](CCCNC(=N)N)NC(=O)[C@H](C)NC(=O)[C@H](C)NC(=O)[C@H](CCC(N)=O)NC(=O)[C@H](CCC(=O)O)NC(=O)[C@H](CCC(=O)O)NC(=O)[C@H](CC(C)C)NC(=O)[C@H](CC(C)C)NC(=O)[C@@H](NC(=O)[C@H](CO)NC(=O)[C@H](Cc1ccc(O)cc1)NC(=O)[C@H](CC(=O)O)NC(=O)[C@H](CO)NC(=O)[C@@H](NC(=O)[C@H](Cc1ccccc1)NC(=O)[C@@H](NC(=O)CNC(=O)[C@H](CCC(=O)O)NC(=O)C(C)(C)NC(=O)[C@@H](N)Cc1ccc(O)cc1)[C@@H](C)O)[C@@H](C)O)[C@@H](C)CC)C(=O)N[C@@H](CCC(=O)O)C(=O)N[C@@H](Cc1c[nH]c2ccccc12)C(=O)N[C@@H](CC(C)C)C(=O)N[C@@H](CC(C)C)C(=O)N[C@@H](C)C(=O)NCC(=O)NCC(=O)N1CCC[C@H]1C(=O)N[C@@H](CO)C(=O)N[C@@H](CCCCNC(=O)COCCOCCNC(=O)COCCOCCNC(=O)CC[C@H](NC(=O)CCCCCCCCCCCCCCC(=O)O)C(=O)O)C(=O)NCC(=O)N[C@@H](C)C(=O)N1CCC[C@H]1C(=O)N1CCC[C@H]1C(=O)N1CCC[C@H]1C(=O)N[C@@H](CO)C(=O)O [Parent compound 1] (H-Y[Aib]EGTFTSDYSILLEEQAAREFIEWLLAGGPSK([AEEA-AEEA-γGlu-C16 diacid])GAPPPS-OH)
195					118	H-[dK]([AEEA-AEEA-γGlu-C16 diacid])[Sar]Y[Aib]EGTFTSDYSILLEEQAAREFIEWLLAGGPSK([AEEA-AEEA-γGlu-C16 diacid])GAPPPS-OH [Compound 10]

Compound	half-life at 100 μM (physchem) [h]	AUC/Dose (in vivo [1])	Cmax/Dose (in vivo [1])	Tmax (in vivo [1]) [h]	half-life (in vivo [1]) [h]	half-life (in vivo [2]) [h]
CC[C@H](C)[C@H](NC(=O)[C@H](Cc1ccccc1)NC(=O)[C@H](CCC(=O)O)NC(=O)[C@H](CCCNC(=N)N)NC(=O)[C@H](C)NC(=O)[C@H](C)NC(=O)[C@H](CCC(N)=O)NC(=O)[C@H](CCCCNC(=O)[C@@H](N)CCCCNC(=O)[C@@H](N)CCCCNC(=O)CC[C@H](NC(=O)CCCCCCCCCCCCCCCCC(=O)O)C(=O)O)NC(=O)[C@H](CCC(=O)O)NC(=O)[C@H](CC(C)C)NC(=O)[C@H](CC(C)C)NC(=O)[C@@H](NC(=O)[C@H](CO)NC(=O)[C@H](Cc1ccc(O)cc1)NC(=O)[C@H](CC(=O)O)NC(=O)[C@H](CO)NC(=O)[C@@H](NC(=O)[C@H](Cc1ccccc1)NC(=O)[C@@H](NC(=O)CNC(=O)[C@H](CCC(=O)O)NC(=O)C(C)(C)NC(=O)[C@@H](N)Cc1ccc(O)cc1)[C@@H](C)O)[C@@H](C)O)[C@@H](C)CC)C(=O)N[C@@H](CCC(=O)O)C(=O)N[C@@H](Cc1c[nH]c2ccccc12)C(=O)N[C@@H](CC(C)C)C(=O)N[C@@H](CC(C)C)C(=O)N[C@@H](C)C(=O)NCC(=O)NCC(=O)N1CCC[C@H]1C(=O)N[C@@H](CO)C(=O)N[C@@H](CO)C(=O)NCC(=O)N[C@@H](C)C(=O)N1CCC[C@H]1C(=O)N1CCC[C@H]1C(=O)N1CCC[C@H]1C(=O)N[C@@H](CO)C(=O)O [Parent compound 4] (H-Y[Aib]EGTFTSDYSILLEK([εLys-εLys-γGlu-C18 diacid])QAAREFIEWLLAGGPSSGAPPPS-OH)		17.9* kg*h/L	0.35* kg/L			106
